Our source for the GI50 and TGI values is PubChem BioAssay (NCI).

SMILES strings stand for the structures. Several values for one entry are separate records, joined by “and”; a condition that tells them apart may be missing. Equal entries are not always repeated.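 Exposure lasted 48 hours, with cells grown in 96-well plates and compounds tested at five concentrations. Here, GI50 denotes the concentration required for 50% inhibition of growth. TGI: total growth inhibition.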 A value given as a limit tells only on which side of the number the result lay.

Test systems include KM12 colon; DU-145 prostate; UACC-257 melanoma; RXF 393 renal; U251 CNS; BT-549 breast; SN12C renal; MALME-3M melanoma; NCI-H522 lung; SK-MEL-28 melanoma.
What all share (assay): growth of human tumour cells (NCI), 48 h

`CC1(C)OC[C@@H]([C@@]2(CO[Si](C)(C)C(C)(C)C)CC=CC(=O)O2)O1`: the GI50 in the assay with KM12 colon was 31.1 µM; in the assay with DU-145 prostate, 18.7 µM; in the assay on UACC-257 melanoma, 13.8 µM; with RXF 393 renal, 23.6 µM; in the assay on U251 CNS, 31.2 µM; in the assay on BT-549 breast, 24.1 µM. Moreover, the GI50 is 19.5 µM in the assay with SN12C renal, 20.1 µM in the assay with MALME-3M melanoma, 30.2 µM with NCI-H522 lung and 21.8 µM in the assay with SK-MEL-28 melanoma. Further, the TGI with KM12 colon is > 100 µM; in the assay on DU-145 prostate, 40.9 µM; with UACC-257 melanoma, 33.2 µM; in the assay with RXF 393 renal it was 56.3 µM; in the assay with U251 CNS, > 100 µM; in the assay with BT-549 breast it was 47.8 µM. In addition, the TGI was determined as 47.6 µM in the assay on SN12C renal, 47.6 µM in the assay on MALME-3M melanoma, 86.2 µM with NCI-H522 lung and 48.9 µM with SK-MEL-28 melanoma.

For `O=C1/C(=C/c2ccc(O)c([N+](=O)[O-])c2)CCC/C1=C\c1ccc(O)c([N+](=O)[O-])c1`, the GI50 in the assay with KM12 colon is 1.97 µM; with DU-145 prostate it was 2.99 µM; in the assay with UACC-257 melanoma, 15.5 µM; in the assay on RXF 393 renal it was 1.53 µM; in the assay with U251 CNS, 14 µM; with BT-549 breast it was 2.83 µM. The GI50 in the assay on SN12C renal was 46.2 µM; with MALME-3M melanoma it was 12.3 µM; in the assay on NCI-H522 lung it was 1.49 µM; with SK-MEL-28 melanoma it was 19.9 µM. The TGI with KM12 colon is 18.4 µM and 9.42 µM; with DU-145 prostate it was 20.3 µM and 15.3 µM; with UACC-257 melanoma it was 44.3 µM and 37.7 µM; in the assay with RXF 393 renal it was 19.6 µM and 5.91 µM; in the assay on U251 CNS it was 18.3 µM and 26.9 µM; with BT-549 breast it was 36.6 µM and 9.46 µM. Besides, the TGI in the assay on SN12C renal was 26.2 µM and > 100 µM; in the assay with MALME-3M melanoma it was 26.3 µM and 26.2 µM; with NCI-H522 lung it was 22.6 µM and 3.08 µM; with SK-MEL-28 melanoma, 20.3 µM and 45 µM.

Turning to `C/C=C(\C)C(=O)N[C@H]1[C@@H](OC(C)=O)C[C@]2(C)C3CC[C@@]4(C)C(CC[C@@H]4C(C)N(C)C)C3CCC2[C@H]1O` (stereo not given in full), the GI50 was 4.35 µM with KM12 colon; 6.4 µM in the assay on DU-145 prostate; 1.98 µM with UACC-257 melanoma; 1.71 µM in the assay on RXF 393 renal; 4.48 µM with U251 CNS; 4.81 µM in the assay with BT-549 breast. The GI50 was 5.55 µM in the assay with SN12C renal, 2.03 µM in the assay on MALME-3M melanoma, 4.99 µM in the assay on NCI-H522 lung and 1.83 µM in the assay on SK-MEL-28 melanoma. Besides, the TGI came to 15.5 µM in the assay on KM12 colon; 21.3 µM in the assay with DU-145 prostate; 5.16 µM in the assay with UACC-257 melanoma; 14.4 µM in the assay with RXF 393 renal; 18.3 µM in the assay on U251 CNS; 21.6 µM in the assay with BT-549 breast. Moreover, the TGI is 19.6 µM in the assay on SN12C renal, 6.43 µM with MALME-3M melanoma, 15.3 µM in the assay with NCI-H522 lung and 3.67 µM in the assay on SK-MEL-28 melanoma.

Consider `COc1c(C)c2c(c(O)c1C/C=C(\C)CCC(=O)OCCN1CCOCC1)C(=O)OC2`, for which the GI50 in the assay on KM12 colon was 0.317 µM; in the assay with DU-145 prostate it was 0.415 µM; with UACC-257 melanoma, 0.573 µM; with RXF 393 renal it was 0.774 µM; with U251 CNS, 0.11 µM; with BT-549 breast, 0.426 µM. The GI50 in the assay on SN12C renal is 0.448 µM; in the assay with MALME-3M melanoma, 2.5 µM; in the assay with NCI-H522 lung it was 0.3 µM; with SK-MEL-28 melanoma it was 0.236 µM. Also, the TGI in the assay with KM12 colon, in the assay with DU-145 prostate, with UACC-257 melanoma, in the assay on RXF 393 renal, with U251 CNS and in the assay on BT-549 breast was > 100 µM each time. The TGI in the assay on SN12C renal, in the assay with MALME-3M melanoma, in the assay on NCI-H522 lung and in the assay on SK-MEL-28 melanoma was > 100 µM throughout.

For `CCCc1ccc(S(=O)(=O)N[C@H]2CC[C@H]3[C@@H]4CCc5cc(O)ccc5[C@H]4CC[C@]23C)cc1`, the GI50 in the assay on KM12 colon is 2.68 µM; in the assay on DU-145 prostate, 4.04 µM; with UACC-257 melanoma, 3.83 µM; in the assay with RXF 393 renal, 1.67 µM; in the assay with U251 CNS it was 1.95 µM; in the assay with BT-549 breast, 2.47 µM. Besides, the GI50 in the assay with SN12C renal was 1.75 µM; in the assay with MALME-3M melanoma it was 2.82 µM; in the assay on NCI-H522 lung, 2.32 µM; in the assay with SK-MEL-28 melanoma, 2.45 µM. Further, the TGI worked out at 7.81 µM in the assay on KM12 colon; 14 µM in the assay on DU-145 prostate; 15.7 µM in the assay with UACC-257 melanoma; 4.42 µM in the assay on RXF 393 renal; 4.25 µM in the assay with U251 CNS; 5.89 µM with BT-549 breast. Also, the TGI with SN12C renal amounted to 3.44 µM; with MALME-3M melanoma, 8.07 µM; in the assay with NCI-H522 lung, 9.09 µM; in the assay on SK-MEL-28 melanoma it was 6.33 µM.

With `CCCCCNC(=O)[C@@H]1CCCN2C(=O)CC[C@H](NC(=O)[C@H](Cc3ccc(OP(=O)(O)O)cc3)NC(C)=O)C(=O)N12`, the GI50 with KM12 colon, with DU-145 prostate, with UACC-257 melanoma, with RXF 393 renal, with U251 CNS and in the assay on BT-549 breast was > 25 µM each time. Moreover, the GI50 in the assay on SN12C renal, in the assay with MALME-3M melanoma, in the assay with NCI-H522 lung and in the assay with SK-MEL-28 melanoma was > 25 µM each time. The TGI in the assay on KM12 colon, in the assay on DU-145 prostate, in the assay with UACC-257 melanoma, in the assay on RXF 393 renal, in the assay with U251 CNS and in the assay on BT-549 breast was > 25 µM throughout. For the same compound, the TGI with SN12C renal, with MALME-3M melanoma, with NCI-H522 lung and with SK-MEL-28 melanoma was > 25 µM in each case.

Take `CCN(CC)CCOc1ccc(Nc2ncc3cc(-c4ccc(O)cc4)c(=O)n(C)c3n2)cc1`: the GI50 in the assay with KM12 colon was 2.44 µM; with DU-145 prostate, 12.9 µM; in the assay on UACC-257 melanoma it was 7.57 µM; in the assay with RXF 393 renal, 0.147 µM; in the assay with U251 CNS, 1.4 µM; in the assay on BT-549 breast it was 3.33 µM. Moreover, the GI50 with SN12C renal is 0.212 µM; in the assay with MALME-3M melanoma it was 0.734 µM; with NCI-H522 lung, 2.69 µM; in the assay with SK-MEL-28 melanoma, 10.6 µM. Besides, the TGI with KM12 colon is 17.1 µM; with DU-145 prostate, 26.3 µM; with UACC-257 melanoma it was 31.6 µM; in the assay on RXF 393 renal, 1.67 µM; in the assay on U251 CNS it was 2.81 µM; with BT-549 breast, 16.5 µM. In addition, the TGI amounted to 21.2 µM with SN12C renal, 2.44 µM in the assay with MALME-3M melanoma, 27.1 µM in the assay on NCI-H522 lung and 27.6 µM in the assay with SK-MEL-28 melanoma.
